Source: the supplement of paper PMC10307832

Tests used:
Assay in all cases: relative viability (nuclei count vs DMSO), 5 days (fraction); higher = more cells survive
NCI-H1395 = system: NCI-H1395
In short: (§1)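 Lung cancer cell lines were seeded in 1536-well plates and dosed by pin tool the next day, with either a single drug or a fixed anchor-drug dose combined with five library-drug doses (not always all listed) spaced in √10 steps. Five days later, one step fixed the cells and stained their nuclei (final 0.05% Triton X-100, 1% formaldehyde, 1 ug/ml Hoechst), and nuclei were counted on 4× images. Relative viability is the nuclei count in treated wells divided by the count in vehicle wells, and each value is the median of duplicate plates.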

NCI-H460 = system: NCI-H460
In short: as §1

NCI-H2085 = system: NCI-H2085
In short: as §1

NCI-H441 = system: NCI-H441
In short: as §1

NCI-H1437 = system: NCI-H1437
In short: as §1

LU99A = system: LU99A
In short: as §1

NCI-H1651 = system: NCI-H1651
In short: as §1

HCC-44 = system: HCC-44
In short: as §1

NCI-H838 = system: NCI-H838
In short: as §1

NCI-H1755 = system: NCI-H1755
In short: as §1

NCI-H2023 = system: NCI-H2023
In short: as §1

NCI-H1734 = system: NCI-H1734
In short: as §1

LOU-NH91 = system: LOU-NH91
In short: as §1

EKVX = system: EKVX
In short: as §1

BEN = system: BEN
In short: as §1

NCI-H1650 = system: NCI-H1650
In short: as §1

HCC-366 = system: HCC-366
In short: as §1

NCI-H1355 = system: NCI-H1355
In short: as §1

NCI-H1975 = system: NCI-H1975
In short: as §1

CAL-12T = system: CAL-12T
In short: as §1

`O=C(O)c1ccc(-c2c[nH]c3ncc(-c4ccccc4)cc23)cc1C1CCCC1` + CC1(C)CCC(c2ccc(Cl)cc2)=C(CN2CCN(c3ccc(C(=O)NS(=O)(=O)c4ccc(N[C@H](CCN5CCOCC5)CSc5ccccc5)c(S(=O)(=O)C(F)(F)F)c4)cc3)CC2)C1 [Navitoclax] (partner 0.5 µM) gave a relative viability (NCI-H1395; first compound 0.04 µM) of 1.13, a relative viability (NCI-H1395; first compound 0.1265 µM) of 1.05 and a relative viability (NCI-H1395; first compound 0.4 µM) of 1.03. It also gave a relative viability (NCI-H1395; first compound 1.265 µM) of 0.915, a relative viability (NCI-H460; first compound 0.04 µM) of 1.08 and a relative viability (NCI-H460; first compound 0.1265 µM) of 1.18. For the same compound, the relative viability (NCI-H460; first compound 0.4 µM) was 1.14, the relative viability (NCI-H460; first compound 1.265 µM) was 0.962 and the relative viability (NCI-H2085; first compound 0.04 µM) was 1.06. It also gave a relative viability (NCI-H2085; first compound 0.1265 µM) of 1.1, a relative viability (NCI-H2085; first compound 0.4 µM) of 1.04 and a relative viability (NCI-H2085; first compound 1.265 µM) of 0.72. The relative viability (NCI-H441; first compound 0.04 µM) was 0.751, the relative viability (NCI-H441; first compound 0.1265 µM) was 0.583 and the relative viability (NCI-H441; first compound 0.4 µM) was 0.365. The relative viability (NCI-H441; first compound 1.265 µM) was 0.469, the relative viability (NCI-H1437; first compound 0.04 µM) was 1.03 and the relative viability (NCI-H1437; first compound 0.1265 µM) was 1.22. The relative viability (NCI-H1437; first compound 0.4 µM) was 0.955, the relative viability (NCI-H1437; first compound 1.265 µM) was 0.407 and the relative viability (LU99A; first compound 0.04 µM) was 0.818. The relative viability (LU99A; first compound 0.1265 µM) was 0.987, the relative viability (LU99A; first compound 0.4 µM) was 0.735 and the relative viability (LU99A; first compound 1.265 µM) was 0.721. For the same compound, the relative viability (NCI-H1651; first compound 0.04 µM) was 0.926, the relative viability (NCI-H1651; first compound 0.1265 µM) was 0.995 and the relative viability (NCI-H1651; first compound 0.4 µM) was 0.943. For the same compound, the relative viability (NCI-H1651; first compound 1.265 µM) was 0.696, the relative viability (HCC-44; first compound 0.04 µM) was 1.06 and the relative viability (HCC-44; first compound 0.1265 µM) was 1.01. For the same compound, the relative viability (HCC-44; first compound 0.4 µM) was 0.944, the relative viability (HCC-44; first compound 1.265 µM) was 0.914 and the relative viability (NCI-H838; first compound 0.04 µM) was 1.15. It also gave a relative viability (NCI-H838; first compound 0.1265 µM) of 1.27, a relative viability (NCI-H838; first compound 0.4 µM) of 1.22 and a relative viability (NCI-H838; first compound 1.265 µM) of 1.07. The relative viability (NCI-H1755; first compound 0.04 µM) was 0.98, the relative viability (NCI-H1755; first compound 0.1265 µM) was 1.05 and the relative viability (NCI-H1755; first compound 0.4 µM) was 1.03. For the same compound, the relative viability (NCI-H1755; first compound 1.265 µM) was 0.927, the relative viability (NCI-H2023; first compound 0.04 µM) was 1.03 and the relative viability (NCI-H2023; first compound 0.1265 µM) was 1.11. The relative viability (NCI-H2023; first compound 0.4 µM) was 0.987, the relative viability (NCI-H2023; first compound 1.265 µM) was 0.904 and the relative viability (NCI-H1734; first compound 0.04 µM) was 0.706. It also gave a relative viability (NCI-H1734; first compound 0.1265 µM) of 0.916, a relative viability (NCI-H1734; first compound 0.4 µM) of 0.878 and a relative viability (NCI-H1734; first compound 1.265 µM) of 0.686. For the same compound, the relative viability (LOU-NH91; first compound 0.04 µM) was 0.759, the relative viability (LOU-NH91; first compound 0.1265 µM) was 0.73 and the relative viability (LOU-NH91; first compound 0.4 µM) was 0.68. The relative viability (LOU-NH91; first compound 1.265 µM) was 0.541, the relative viability (EKVX; first compound 0.04 µM) was 0.92 and the relative viability (EKVX; first compound 0.1265 µM) was 0.967. The relative viability (EKVX; first compound 0.4 µM) was 1.03, the relative viability (EKVX; first compound 1.265 µM) was 0.655 and the relative viability (BEN; first compound 0.04 µM) was 0.06. It also gave a relative viability (BEN; first compound 0.1265 µM) of 0.057, a relative viability (BEN; first compound 0.4 µM) of 0.0946 and a relative viability (BEN; first compound 1.265 µM) of 0.0505. For the same compound, the relative viability (NCI-H1650; first compound 0.04 µM) was 1.17, the relative viability (NCI-H1650; first compound 0.1265 µM) was 1.14 and the relative viability (NCI-H1650; first compound 0.4 µM) was 0.774. For the same compound, the relative viability (NCI-H1650; first compound 1.265 µM) was 0.914, the relative viability (HCC-366; first compound 0.04 µM) was 0.993 and the relative viability (HCC-366; first compound 0.1265 µM) was 1.2. It also gave a relative viability (HCC-366; first compound 0.4 µM) of 0.964, a relative viability (HCC-366; first compound 1.265 µM) of 1.14 and a relative viability (NCI-H1355; first compound 0.04 µM) of 0.995. It also gave a relative viability (NCI-H1355; first compound 0.1265 µM) of 0.957, a relative viability (NCI-H1355; first compound 0.4 µM) of 1.03 and a relative viability (NCI-H1355; first compound 1.265 µM) of 0.683. For the same compound, the relative viability (NCI-H1975; first compound 0.04 µM) was 1.13, the relative viability (NCI-H1975; first compound 0.1265 µM) was 1.25 and the relative viability (NCI-H1975; first compound 0.4 µM) was 1.1. The relative viability (NCI-H1975; first compound 1.265 µM) was 1.17, the relative viability (CAL-12T; first compound 0.04 µM) was 1.26 and the relative viability (CAL-12T; first compound 0.1265 µM) was 1.21. The relative viability (CAL-12T; first compound 0.4 µM) was 1.11 and the relative viability (CAL-12T; first compound 1.265 µM) was 1.05.
